Experimental data published in article PMC6025901 (Science translational medicine, 2015).
Like-named read-outs stand apart in the source and are kept apart here.

How the values were obtained:
[1] = test system: TcdB-induced cell rounding, human foreskin fibroblast (HFF) cells; test: cells; type: cell-based; conditions: for EC50: Homo sapiens, HFF
[2] = test system: large clostridial toxins (TcdA and TcdB) in patient stool sample, cell rounding; test: cells; type: cell-based; conditions: Homo sapiens, read-out: EC50 for inhibition of toxin-induced cytopathology
TcdB CPD domain = TcdB CPD domain (Clostridioides difficile, UniProt P18177); test: competition labeling assay with TAMRA–AWP-19; type: biochemical, Clostridium difficile; conditions: IP6-activated CPD, TAMRA–AWP-19 labeling
[3] = target: TcdB GTD domain (amino acids 1 to 543) (Clostridioides difficile, UniProt P18177); type: biochemical, Clostridium difficile
full-length TcdA = full-length TcdA (Clostridioides difficile, UniProt P16154); test: IP6-induced autoprocessing / TAMRA–AWP-19 labeling of full-length TcdA; type: biochemical, Clostridium difficile
full-length TcdB = full-length TcdB (Clostridioides difficile, UniProt P18177); type: biochemical, Clostridium difficile
TcdB = TcdB (Clostridioides difficile, UniProt P18177); test: murine systemic intoxication; type: in vivo, mouse; conditions: mice, TcdB 1.0 µg/kg i.p. pretreated with 100 nM ebselen
C. difficile strain 630 = test: mouse C. difficile infection model; type: in vivo; conditions: for histopathological score, dose-response study: 5-day treatment
[4] = 100 mg/kg daily oral gavage, day 5, vs vehicle

Sequence of full-length TcdB (P18177 whole entry): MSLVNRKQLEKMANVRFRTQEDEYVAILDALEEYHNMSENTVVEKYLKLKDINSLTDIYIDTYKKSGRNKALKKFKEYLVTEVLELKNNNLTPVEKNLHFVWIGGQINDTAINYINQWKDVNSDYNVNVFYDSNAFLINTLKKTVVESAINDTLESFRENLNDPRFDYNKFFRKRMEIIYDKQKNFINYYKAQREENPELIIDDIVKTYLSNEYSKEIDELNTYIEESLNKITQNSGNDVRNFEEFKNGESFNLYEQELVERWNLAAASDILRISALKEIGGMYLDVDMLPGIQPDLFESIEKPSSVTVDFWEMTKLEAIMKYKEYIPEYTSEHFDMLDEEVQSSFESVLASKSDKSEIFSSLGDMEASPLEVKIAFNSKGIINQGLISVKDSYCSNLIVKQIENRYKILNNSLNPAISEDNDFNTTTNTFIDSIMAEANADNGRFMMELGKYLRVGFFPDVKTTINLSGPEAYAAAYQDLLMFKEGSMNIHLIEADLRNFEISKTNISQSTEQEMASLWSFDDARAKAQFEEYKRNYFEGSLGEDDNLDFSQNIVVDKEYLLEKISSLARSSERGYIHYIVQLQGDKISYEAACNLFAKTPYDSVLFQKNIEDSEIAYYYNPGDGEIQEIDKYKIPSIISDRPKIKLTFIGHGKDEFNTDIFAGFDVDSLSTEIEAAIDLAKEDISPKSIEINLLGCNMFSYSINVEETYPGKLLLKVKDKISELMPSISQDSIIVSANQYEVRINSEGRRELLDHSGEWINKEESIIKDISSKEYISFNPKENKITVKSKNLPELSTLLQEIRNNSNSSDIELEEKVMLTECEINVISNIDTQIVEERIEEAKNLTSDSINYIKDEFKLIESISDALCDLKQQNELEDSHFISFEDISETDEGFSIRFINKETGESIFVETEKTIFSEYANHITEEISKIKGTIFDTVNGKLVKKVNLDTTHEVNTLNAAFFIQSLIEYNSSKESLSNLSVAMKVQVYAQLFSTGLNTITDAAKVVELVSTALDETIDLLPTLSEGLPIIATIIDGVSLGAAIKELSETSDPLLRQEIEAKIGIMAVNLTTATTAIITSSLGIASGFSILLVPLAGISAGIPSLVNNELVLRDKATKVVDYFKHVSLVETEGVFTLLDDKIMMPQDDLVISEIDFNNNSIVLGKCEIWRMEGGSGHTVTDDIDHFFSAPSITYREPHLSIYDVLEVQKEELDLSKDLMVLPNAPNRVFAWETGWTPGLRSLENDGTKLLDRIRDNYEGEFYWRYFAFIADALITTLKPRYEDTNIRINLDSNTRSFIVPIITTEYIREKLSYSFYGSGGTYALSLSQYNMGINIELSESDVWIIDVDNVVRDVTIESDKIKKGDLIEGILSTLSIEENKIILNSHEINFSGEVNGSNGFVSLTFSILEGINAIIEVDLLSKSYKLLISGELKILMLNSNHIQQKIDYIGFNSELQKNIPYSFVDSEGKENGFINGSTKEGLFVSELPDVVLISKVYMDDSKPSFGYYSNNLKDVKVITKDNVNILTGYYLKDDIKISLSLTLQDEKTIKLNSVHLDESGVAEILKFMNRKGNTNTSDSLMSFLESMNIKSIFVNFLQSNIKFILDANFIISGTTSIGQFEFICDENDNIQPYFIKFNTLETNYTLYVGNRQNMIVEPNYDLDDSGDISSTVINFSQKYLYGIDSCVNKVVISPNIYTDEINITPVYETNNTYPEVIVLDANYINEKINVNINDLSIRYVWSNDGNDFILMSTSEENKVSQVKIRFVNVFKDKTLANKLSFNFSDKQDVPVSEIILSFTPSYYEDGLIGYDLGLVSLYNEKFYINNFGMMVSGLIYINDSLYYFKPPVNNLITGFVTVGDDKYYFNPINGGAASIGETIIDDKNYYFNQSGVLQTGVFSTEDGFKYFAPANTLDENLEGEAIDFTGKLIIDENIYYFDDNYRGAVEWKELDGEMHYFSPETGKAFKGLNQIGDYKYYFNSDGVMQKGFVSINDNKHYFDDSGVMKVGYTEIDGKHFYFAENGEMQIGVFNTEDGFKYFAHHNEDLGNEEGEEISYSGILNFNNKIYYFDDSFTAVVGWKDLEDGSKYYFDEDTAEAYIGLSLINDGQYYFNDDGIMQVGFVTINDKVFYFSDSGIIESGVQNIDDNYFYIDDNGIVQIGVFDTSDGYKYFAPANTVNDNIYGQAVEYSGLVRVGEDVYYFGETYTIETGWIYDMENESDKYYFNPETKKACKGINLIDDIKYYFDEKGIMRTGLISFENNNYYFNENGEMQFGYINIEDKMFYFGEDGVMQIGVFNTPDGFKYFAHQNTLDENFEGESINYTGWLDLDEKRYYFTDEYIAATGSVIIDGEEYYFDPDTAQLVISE
Sequence of TcdB CPD domain (P18177 544-799 limits assumed): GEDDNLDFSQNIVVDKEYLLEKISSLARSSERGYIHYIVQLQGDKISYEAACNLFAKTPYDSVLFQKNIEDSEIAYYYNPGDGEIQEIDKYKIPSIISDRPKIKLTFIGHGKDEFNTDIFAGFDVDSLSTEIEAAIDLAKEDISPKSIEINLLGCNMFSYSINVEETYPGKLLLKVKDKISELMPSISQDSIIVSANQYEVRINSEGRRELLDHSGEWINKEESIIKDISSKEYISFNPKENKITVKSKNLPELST
Sequence of TcdB (P18177 2-2366 limits assumed): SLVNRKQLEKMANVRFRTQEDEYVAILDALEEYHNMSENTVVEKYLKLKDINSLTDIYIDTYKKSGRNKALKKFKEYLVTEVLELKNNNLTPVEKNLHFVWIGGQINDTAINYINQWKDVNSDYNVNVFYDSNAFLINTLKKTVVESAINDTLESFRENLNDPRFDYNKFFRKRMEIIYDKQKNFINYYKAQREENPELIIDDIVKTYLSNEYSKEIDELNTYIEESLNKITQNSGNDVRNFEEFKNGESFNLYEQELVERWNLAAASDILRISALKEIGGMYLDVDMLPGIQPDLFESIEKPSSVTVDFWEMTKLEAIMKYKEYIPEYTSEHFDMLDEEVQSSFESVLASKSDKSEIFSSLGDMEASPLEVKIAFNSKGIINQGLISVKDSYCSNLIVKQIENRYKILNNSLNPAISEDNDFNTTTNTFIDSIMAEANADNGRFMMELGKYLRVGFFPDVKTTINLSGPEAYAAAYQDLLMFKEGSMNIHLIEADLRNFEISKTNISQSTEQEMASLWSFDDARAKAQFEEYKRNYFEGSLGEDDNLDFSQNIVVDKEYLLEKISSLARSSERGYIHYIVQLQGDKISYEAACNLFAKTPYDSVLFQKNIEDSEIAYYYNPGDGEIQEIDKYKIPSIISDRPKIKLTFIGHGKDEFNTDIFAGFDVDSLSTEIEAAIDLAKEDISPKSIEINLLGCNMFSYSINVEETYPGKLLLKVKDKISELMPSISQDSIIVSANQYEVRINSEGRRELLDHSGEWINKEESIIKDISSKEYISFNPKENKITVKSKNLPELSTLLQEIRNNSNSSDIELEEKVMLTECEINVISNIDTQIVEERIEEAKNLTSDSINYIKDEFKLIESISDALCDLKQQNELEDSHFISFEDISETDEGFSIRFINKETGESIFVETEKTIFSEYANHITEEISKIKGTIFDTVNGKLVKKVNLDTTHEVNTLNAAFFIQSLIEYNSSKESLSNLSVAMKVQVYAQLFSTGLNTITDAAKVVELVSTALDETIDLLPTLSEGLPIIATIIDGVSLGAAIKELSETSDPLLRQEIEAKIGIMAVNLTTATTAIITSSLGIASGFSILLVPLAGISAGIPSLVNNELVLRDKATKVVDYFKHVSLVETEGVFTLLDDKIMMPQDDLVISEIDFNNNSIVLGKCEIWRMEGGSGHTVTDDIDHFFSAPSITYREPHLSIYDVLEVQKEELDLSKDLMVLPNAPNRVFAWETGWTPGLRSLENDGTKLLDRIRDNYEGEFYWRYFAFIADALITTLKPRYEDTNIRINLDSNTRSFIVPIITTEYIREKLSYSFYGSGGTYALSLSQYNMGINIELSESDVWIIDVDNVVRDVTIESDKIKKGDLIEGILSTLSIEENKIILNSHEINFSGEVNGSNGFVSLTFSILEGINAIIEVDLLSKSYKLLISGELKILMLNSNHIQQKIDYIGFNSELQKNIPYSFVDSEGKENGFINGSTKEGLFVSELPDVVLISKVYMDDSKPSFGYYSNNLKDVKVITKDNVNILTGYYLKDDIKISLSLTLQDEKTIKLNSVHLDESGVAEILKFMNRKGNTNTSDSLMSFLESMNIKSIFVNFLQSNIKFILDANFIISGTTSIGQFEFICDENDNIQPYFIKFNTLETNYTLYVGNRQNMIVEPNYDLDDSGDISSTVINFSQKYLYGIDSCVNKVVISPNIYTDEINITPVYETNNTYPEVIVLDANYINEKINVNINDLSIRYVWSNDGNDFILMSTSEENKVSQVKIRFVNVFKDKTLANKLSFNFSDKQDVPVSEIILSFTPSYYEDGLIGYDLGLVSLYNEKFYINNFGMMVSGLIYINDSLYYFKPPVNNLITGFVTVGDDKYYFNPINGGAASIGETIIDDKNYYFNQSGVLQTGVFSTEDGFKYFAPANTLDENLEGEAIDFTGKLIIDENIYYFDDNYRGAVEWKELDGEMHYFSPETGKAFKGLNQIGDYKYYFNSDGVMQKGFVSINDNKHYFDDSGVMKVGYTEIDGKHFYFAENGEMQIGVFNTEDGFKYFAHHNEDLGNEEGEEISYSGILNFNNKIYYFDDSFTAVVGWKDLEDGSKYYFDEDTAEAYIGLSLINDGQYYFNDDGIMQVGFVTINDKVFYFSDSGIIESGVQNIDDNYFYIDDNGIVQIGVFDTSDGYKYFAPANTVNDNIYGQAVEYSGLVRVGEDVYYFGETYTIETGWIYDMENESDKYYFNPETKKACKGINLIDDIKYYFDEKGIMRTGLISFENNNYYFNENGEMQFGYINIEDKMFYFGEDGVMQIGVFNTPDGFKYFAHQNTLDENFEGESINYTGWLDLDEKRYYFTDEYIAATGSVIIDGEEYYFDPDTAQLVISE

SMILES: O=c1c2ccccc2[se]n1-c1ccccc1 [ebselen, 2-phenyl-1,2-benzoselenazol-3-one]
- glucosylated Rac1 (Western blot, mAb102 nonglucosylated Rac1) [1]: decreased with increasing amounts of ebselen
- protection against delayed toxicity of L543A noncleavable mutant TcdB [1]: showed further protection
- EC50 ([1]; read-out: EC50 for blocking cell rounding): 0.0205 µM
- EC50 ([1]; read-out: EC50 for protection against cell rounding): 0.217 µM
- EC50 [2]: 0.372 µM
- inhibition of IP6-induced labeling of the CPD active-site cysteine (TcdB CPD domain): low nanomolar concentrations
- inhibition of glucosyltransferase activity of the GTD domain [3]: did not show any inhibition
- inhibition of IP6-induced autoprocessing of full-length TcdA (full-length TcdA): low nanomolar potency
- concentration giving complete inhibition of IP6-induced release of the GTD (full-length TcdB): 20 nM
- inhibition of IP6-induced autoprocessing of full-length TcdB (full-length TcdB): low nanomolar potency
- clinical signs of toxin action (vital signs) (TcdB): no significant changes in vital signs
- histopathological score, dose-response study (C. difficile strain 630; 1 mg/kg daily): no improvement in histopathological score
- histopathological score, dose-response study (C. difficile strain 630; 10 mg/kg daily): partial response
- C. difficile CFU counts in feces (C. difficile strain 630; 100 mg/kg daily oral gavage, 5-day experiment): did not significantly affect
- histopathological scores for cell infiltration, submucosal edema, and mucosal hypertrophy (C. difficile strain 630; [4]): significantly lower
- overall histopathological (clinical) score (C. difficile strain 630; [4]): statistically significant drop in clinical score
- cell rounding activity of shed toxin in feces (quantity of feces required to induce 50% cell rounding) (C. difficile strain 630; 100 mg/kg daily oral gavage, day 5 after infection): reduction in cell rounding activity of shed toxin
- cleaved form of GTD in colon tissues (Western blot) (C. difficile strain 630; 100 mg/kg daily oral gavage, vs vehicle): reduced the amount of the cleaved form of GTD
- histopathological score, dose-response study (C. difficile strain 630; 100 mg/kg daily): virtually complete response
